Reference: ChEMBL document CHEMBL1201862, “PubChem BioAssay data set” (2004)
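Results reflect a 48-hour exposure of cells in 96-well plates to compound at five concentrations. GI50: concentration for 50% inhibition of growth.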 Active and inactive are the calls of the source. Rule as the data show it: active = GI50 up to about 1.1 µM and inactive = higher.

What was measured:
Assay in all cases: NCI anticancer screen, dose series, 48 h
786-0 = test system: 786-0
A549 = test system: A549
CAKI-1 = test system: CAKI-1
COLO 205 = test system: COLO 205
DMS-114 = test system: DMS-114
EKVX = test system: EKVX
HCC 2998 = test system: HCC 2998
HCT-116 = test system: HCT-116
HOP-18 = test system: HOP-18
HOP-62 = test system: HOP-62
HT-29 = test system: HT-29
IGROV-1 = test system: IGROV-1
K562 = test system: K562
KM-20L2 = test system: KM-20L2
KM12 = test system: KM12
M14 = test system: M14
M19-MEL = test system: M19-MEL
MOLT-4 = test system: MOLT-4
Malme-3M = test system: Malme-3M
NCI-H23 = test system: NCI-H23
OVCAR-3 = test system: OVCAR-3
OVCAR-4 = test system: OVCAR-4
OVCAR-5 = test system: OVCAR-5
OVCAR-8 = test system: OVCAR-8
RPMI-8226 = test system: RPMI-8226
RXF 393 = test system: RXF 393
SF-268 = test system: SF-268
SF-295 = test system: SF-295
SF-539 = test system: SF-539
SK-MEL-28 = test system: SK-MEL-28
SK-MEL-2 = test system: SK-MEL-2
SK-OV-3 = test system: SK-OV-3
SNB-19 = test system: SNB-19
SNB-78 = test system: SNB-78
SR = test system: SR
TK-10 = test system: TK-10
U-251 = test system: U-251
UACC-62 = test system: UACC-62
UO-31 = test system: UO-31
XF498 = test system: XF498
ACHN = test system: ACHN
CCRF-CEM = test system: CCRF-CEM
DLD-1 = test system: DLD-1
HL-60 = test system: HL-60
HOP-92 = test system: HOP-92
LOX IMVI = test system: LOX IMVI
LXFL 529 = test system: LXFL 529
NCI-H226 = test system: NCI-H226
NCI-H460 = test system: NCI-H460
SK-MEL-5 = test system: SK-MEL-5
SN12C = test system: SN12C
SNB-75 = test system: SNB-75
SW-620 = test system: SW-620
UACC-257 = test system: UACC-257

Structure (SMILES): C/C(=N\NC(N)=S)c1ccc(C2CCCCC2)cc1
- GI50 (786-0): 13.6 µM (inactive)
- GI50 (A549): 43.4 µM (inactive)
- GI50 (CAKI-1): 25.6 µM (inactive)
- GI50 (COLO 205): 12 µM (inactive)
- GI50 (DMS-114): 7.03 µM (inactive)
- GI50 (EKVX): 71.4 µM (inactive)
- GI50 (HCC 2998): 16.4 µM (inactive)
- GI50 (HCT-116): 14.4 µM (inactive)
- GI50 (HOP-18): 32.1 µM (inactive)
- GI50 (HOP-62): 37.2 µM (inactive)
- GI50 (HT-29): 10.5 µM (inactive)
- GI50 (IGROV-1): 12 µM (inactive)
- GI50 (K562): 12.2 µM (inactive)
- GI50 (KM-20L2): 14.7 µM (inactive)
- GI50 (KM12): 15.9 µM (inactive)
- GI50 (M14): 9.59 µM (inactive)
- GI50 (M19-MEL): 27.5 µM (inactive)
- GI50 (MOLT-4): 4.58 µM (inactive)
- GI50 (Malme-3M): 18.5 µM (inactive)
- GI50 (NCI-H23): 16.9 µM (inactive)
- GI50 (OVCAR-3): 14.6 µM (inactive)
- GI50 (OVCAR-4): 14.4 µM (inactive)
- GI50 (OVCAR-5): 11.1 µM (inactive)
- GI50 (OVCAR-8): 15 µM (inactive)
- GI50 (RPMI-8226): 22.2 µM (inactive)
- GI50 (RXF 393): 12.6 µM (inactive)
- GI50 (SF-268): > 100 µM (inactive)
- GI50 (SF-295): 4.56 µM (inactive)
- GI50 (SF-539): 19.8 µM (inactive)
- GI50 (SK-MEL-28): 16.6 µM (inactive)
- GI50 (SK-MEL-2): 13.5 µM (inactive)
- GI50 (SK-OV-3): 32 µM (inactive)
- GI50 (SNB-19): 40.5 µM (inactive)
- GI50 (SNB-78): 25.9 µM (inactive)
- GI50 (SR): 21.4 µM (inactive)
- GI50 (TK-10): 26 µM (inactive)
- GI50 (U-251): 19 µM (inactive)
- GI50 (UACC-62): 14.2 µM (inactive)
- GI50 (UO-31): 13 µM (inactive)
- GI50 (XF498): 0.113 µM (active)

Structure (SMILES): N#CC(/C(CCC(=O)Nc1ccc(Cl)cc1)=N/NC(=O)c1cc2ccccc2cc1O)c1ccccc1 (centres undefined)
- GI50 (786-0): 38.3 µM (inactive)
- GI50 (A549): 40.8 µM (inactive)
- GI50 (ACHN): 24.9 µM (inactive)
- GI50 (CCRF-CEM): 10.2 µM (inactive)
- GI50 (COLO 205): 40.3 µM (inactive)
- GI50 (DLD-1): 33.7 µM (inactive)
- GI50 (DMS-114): 25.4 µM (inactive)
- GI50 (EKVX): 34.4 µM (inactive)
- GI50 (HCC 2998): 52.2 µM (inactive)
- GI50 (HCT-116): 31.3 µM (inactive)
- GI50 (HL-60): 6.53 µM (inactive)
- GI50 (HOP-18): 21.5 µM (inactive)
- GI50 (HOP-62): 31.3 µM (inactive)
- GI50 (HOP-92): 40.9 µM (inactive)
- GI50 (HT-29): 45.9 µM (inactive)
- GI50 (IGROV-1): 31.7 µM (inactive)
- GI50 (KM-20L2): 28.6 µM (inactive)
- GI50 (KM12): 35.9 µM (inactive)
- GI50 (LOX IMVI): 14.5 µM (inactive)
- GI50 (LXFL 529): 43 µM (inactive)
- GI50 (M14): 32.6 µM (inactive)
- GI50 (M19-MEL): 33.7 µM (inactive)
- GI50 (MOLT-4): 22.2 µM (inactive)
- GI50 (Malme-3M): 50 µM (inactive)
- GI50 (NCI-H226): 42.2 µM (inactive)
- GI50 (NCI-H23): 39.3 µM (inactive)
- GI50 (NCI-H460): 30.7 µM (inactive)
- GI50 (OVCAR-3): 30.5 µM (inactive)
- GI50 (OVCAR-4): 51.9 µM (inactive)
- GI50 (OVCAR-5): 22.8 µM (inactive)
- GI50 (OVCAR-8): 32.2 µM (inactive)
- GI50 (RPMI-8226): 14.9 µM (inactive)
- GI50 (RXF 393): 56.5 µM (inactive)
- GI50 (SF-268): 25.4 µM (inactive)
- GI50 (SF-295): 39.8 µM (inactive)
- GI50 (SK-MEL-28): 48.8 µM (inactive)
- GI50 (SK-MEL-2): 19.7 µM (inactive)
- GI50 (SK-MEL-5): 19.4 µM (inactive)
- GI50 (SN12C): 43.4 µM (inactive)
- GI50 (SNB-19): 47.9 µM (inactive)
- GI50 (SNB-75): 45 µM (inactive)
- GI50 (SNB-78): 66.1 µM (inactive)
- GI50 (SW-620): 50.4 µM (inactive)
- GI50 (TK-10): 56.5 µM (inactive)
- GI50 (U-251): 32.8 µM (inactive)
- GI50 (UACC-257): 30.7 µM (inactive)
- GI50 (UACC-62): 25.1 µM (inactive)
- GI50 (UO-31): 36.8 µM (inactive)
- GI50 (XF498): 54.8 µM (inactive)
